The values that follow come from ChEMBL document CHEMBL1153395, “Development of a novel virtual screening cascade protocol to identify potential trypanothione reductase inhibitors” (J Med Chem, 2009).

In test [1] the target is Trypanothione reductase (Trypanosoma cruzi, UniProt P28593). Put plainly: Inhibition of Trypanosoma cruzi Trypanothione reductase.
In test [2] the target is Trypanothione reductase (Trypanosoma brucei brucei, UniProt P39051). Put plainly: Inhibition of Trypanosoma brucei Trypanothione reductase.
Trypanothione reductase (Trypanosoma brucei brucei, UniProt P39051), sequence (P39051 whole entry): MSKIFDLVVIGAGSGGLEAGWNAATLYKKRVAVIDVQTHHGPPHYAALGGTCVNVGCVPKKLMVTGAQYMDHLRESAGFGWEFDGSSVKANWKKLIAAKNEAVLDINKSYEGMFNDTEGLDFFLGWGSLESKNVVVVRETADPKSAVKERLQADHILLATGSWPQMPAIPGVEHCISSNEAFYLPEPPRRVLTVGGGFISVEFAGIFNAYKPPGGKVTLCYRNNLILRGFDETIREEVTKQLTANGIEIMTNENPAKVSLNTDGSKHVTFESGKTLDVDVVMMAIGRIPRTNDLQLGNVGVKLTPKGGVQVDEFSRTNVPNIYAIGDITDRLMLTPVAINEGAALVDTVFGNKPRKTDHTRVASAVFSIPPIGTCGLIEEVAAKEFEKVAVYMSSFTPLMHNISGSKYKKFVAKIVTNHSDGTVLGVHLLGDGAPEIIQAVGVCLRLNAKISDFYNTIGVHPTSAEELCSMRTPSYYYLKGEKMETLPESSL

Trypanothione reductase (Trypanosoma cruzi, UniProt P28593), sequence (P28593 whole entry): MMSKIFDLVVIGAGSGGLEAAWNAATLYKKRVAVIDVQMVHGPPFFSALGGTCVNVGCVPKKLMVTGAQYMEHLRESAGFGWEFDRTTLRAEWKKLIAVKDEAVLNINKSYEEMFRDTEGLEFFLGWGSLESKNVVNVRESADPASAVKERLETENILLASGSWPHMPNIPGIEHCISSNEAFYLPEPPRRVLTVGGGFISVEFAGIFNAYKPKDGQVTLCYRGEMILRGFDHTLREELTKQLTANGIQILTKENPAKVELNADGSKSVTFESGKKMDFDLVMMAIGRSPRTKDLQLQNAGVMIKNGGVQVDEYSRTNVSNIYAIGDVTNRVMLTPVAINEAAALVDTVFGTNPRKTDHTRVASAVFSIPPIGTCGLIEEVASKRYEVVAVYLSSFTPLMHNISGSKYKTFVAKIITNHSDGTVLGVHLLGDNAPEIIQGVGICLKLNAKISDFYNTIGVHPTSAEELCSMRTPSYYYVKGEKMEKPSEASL

With `NCCCCC(N)C(=O)Nc1ccc2ccccc2c1` (configuration not stated), the IC50 against Trypanothione reductase [1] and on Trypanothione reductase [2] was > 100 µM in each case. `CC12CN3CC(C)(C1)C[N+](Cc1cccc(Br)c1)(C3)C2`: the half-maximal inhibitory concentration (IC50) against Trypanothione reductase [1] and against Trypanothione reductase [2] was > 100 µM each time.

For the compound `O=C(CN1C(=O)C2CC=CCC2C1=O)Nc1ccccc1Sc1ccc(Cl)cc1` (configuration not stated), the 50% inhibitory concentration (IC50) at Trypanothione reductase [1] and against Trypanothione reductase [2] was > 100 µM in each case. `Cc1ccc(N2CC(C(=O)Nc3ccccc3Sc3ccccc3)CC2=O)cc1` (configuration not stated): the IC50 on Trypanothione reductase [1] and against Trypanothione reductase [2] was > 100 µM in each case. Consider `C[N+]1(C)CCCC2c3ccccc3Sc3ccc(Cl)cc3C21` (configuration not stated), for which the IC50 at Trypanothione reductase [1] stood at 75.3 µM; against Trypanothione reductase [2], 58.7 µM. The like results for `C[N+]1(Cc2ccccc2)CCC(/N=C/C2C(=O)NC(=O)N(C3CCCCC3)C2=O)CC1` (configuration not stated) were, in that order, 45.2 µM and > 100 µM. On to `O=C(CN1C(=O)NC2(CCCCCC2)C1=O)Nc1ccccc1Sc1ccccc1`, for which the concentration for half-maximal inhibition (IC50) on Trypanothione reductase [1] and on Trypanothione reductase [2] was > 100 µM each time. With `CC1CCCCC12NC(=O)N(CC(=O)Nc1ccccc1Sc1ccccc1)C2=O` (configuration not stated), the IC50 on Trypanothione reductase [2] is > 100 µM. Consider `CC(NS(=O)(=O)c1ccccc1)C(=O)Nc1ccccc1Sc1ccccc1` (configuration not stated), for which the concentration for half-maximal inhibition (IC50) against Trypanothione reductase [1] and at Trypanothione reductase [2] was > 100 µM each time. For the compound `CN(CC(=O)Nc1ccccc1Sc1ccccc1)C1CCCCC1`, the IC50 was 56.3 µM against Trypanothione reductase [1] and 46.9 µM against Trypanothione reductase [2]. The like results for `CCN1CCN(C2Cc3ccccc3Sc3ccc(Cl)cc32)CC1` (configuration not stated) were, in that order, 29.1 µM and 36 µM. The like results for `O=C(CCN1CCN2CCCCC2C1)N1c2ccccc2Sc2ccc(Cl)cc21` (configuration not stated) were, in that order, 35.4 µM and 31.9 µM. The like results for `O=C(CN1CCN(c2ccccc2)CC1)Nc1ccccc1Sc1ccccc1` were, in that order, > 100 µM and > 100 µM. Consider `CN1CCN(C2=NC(=O)CC(C(=O)Nc3cccc(Cl)c3)N2)CC1` (configuration not stated), for which the half-inhibitory concentration (IC50) against Trypanothione reductase [1] and against Trypanothione reductase [2] was > 100 µM throughout. On to `CN(C)CCCC1Sc2ccccc2Sc2ccccc21` (configuration not stated), for which the IC50 at Trypanothione reductase [1] was found to be 36.7 µM; against Trypanothione reductase [2], 37.3 µM. For `CN1CCCC(CC2Oc3ccccc3Sc3ccccc32)C1` (configuration not stated), in that order: 11.5 µM and 14.6 µM. For the compound `NC(=O)C1(N2CCCCC2)CCN(CC(=O)Nc2ccccc2Sc2ccccc2)CC1`, the IC50 against Trypanothione reductase [1] and against Trypanothione reductase [2] was > 100 µM in each case. In the case of `O=C(CN1CCCCCC1)N1c2ccccc2Sc2ccc(Cl)cc21`, the 50% inhibitory concentration (IC50) against Trypanothione reductase [1] is 78.7 µM; against Trypanothione reductase [2] it was > 100 µM.

For the compound `c1ccc2c(c1)Sc1ccccc1N2CC1CN2CCC1CC2` (configuration not stated) [MEQUITAZINE], the values for the IC50 at Trypanothione reductase [1] and against Trypanothione reductase [2] were 21.8 µM and 54.3 µM, respectively.
